# Reference: US11696912B2, “Charged ion channel blockers and methods for use” (Nocion Therapeutics, Inc., priority 2019, dated 2023)
# What was measured:
# NaV1.7 [1] = target: T1, NaV1.7 (Homo sapiens, UniProt Q15858); assay: Nav1.7 intracellular inhibition, whole cell patch clamp (internal block); format: cell-based; conditions: compound in internal solution; for inhibition at 10 µM: test concentration of 10 μM
# T1 construct: expressed in transfected cells; host or cells: Tetracycline-inducible cell line kept under hygromycin and blasticidin selection
# Protocol: (§1) NaV1.7 was expressed upon induction with tetracycline. Cells were cultured in DMEM containing 10% dialyzed Fetal Bovine Serum (VWR, Radnor, Pa.), 1% Glutamax (VWR, Radnor, Pa.), 1% Penicillin-Streptomycin (VWR, Radnor, Pa.), 100 mg/L Hygromycin (Thermo Fisher Scientific, Waltham, Mass. and 5 mg/L Blasticidin (Alfa Aesar, Haverhill MAI Cells were grown and maintained at 37° C. in a humidified environment containing 10% CO2 in air. Cells were detached from the culture flask for passage and harvested using 0.05% Trypsin-EDTA (Thermo Fisher Scientific, Waltham, Mass.). To induce NaV1.7, cells were induced with tetracycline (0.1-1 μg/mL, IBI Scientific, Peosta, Iowa) the day before recording and plated onto 24-well plates. Cells were washed with DPBS (VWR, Radnor, Pa.), trypsinized and then triturated five times in 10 mL of growth media to break apart cell aggregates. For one 24-well plate, 2 mL of cell suspension was mixed with 23 mL of fresh growth media and 0.1-1 μg/mL tetracycline added. 1 ml of mixed media with cells was then added to each well of a 24-well plate, with a 12 mm coverslip already placed in the bottom of the well. Cells were then incubated in 37° C. and 10% CO2 overnight.
# (§2) The intracellular solution contained the following (in mM) CsCl 135, NaCl 10, […], HEPES 10, MgCl2 2, adjusted to pH 7.2 with CsOH. The external solution was a normal Ringer solution containing (in mM) NaCl 155, HEPES 10, glucose 10, KCl 3.5, CaCl2 1.5, MgCl2 1 adjusted to pH 7.4 with NaOH. CsCl was from Alfa Aesar, Haverhill Mass. All other chemicals were from Sigma-Aldrich, St. Louis. Mo. In order to test the degree of internal block by test compounds the compounds were dissolved in internal solution at the indicated test concentration. […] In order to test the degree of external block by test compounds the compounds were dissolved in external solution at the indicated test concentration.
# (§3) 18-24 hours after cells were induced with tetracycline, coverslips placed into a chamber filled with Normal Ringer solution at room temperature and the chamber placed on a microscope. Pipettes were pulled from borosilicate glass on a P97 puller (Sutter Instrument, Novato, Calif.) and polished with a MF-830 Microforge (Narishige International USA, Inc, Amityville, N.Y.) to have a resistance of 1.5-2.5 MΩ when filled with CsCl internal solution at room temperature. Healthy cells (those that are round and translucent with no visible blemishes) were chosen for seal formation. A seal was formed between the pipette and the cell, and a brief pulse of suction used to “break in” and establish the whole-cell configuration. The membrane potential was held at −100 mV before the voltage protocol began. Only cells with series resistance between 1.5-5 M were retained for analysis. The voltage protocol was as follows: Cells were held at −100 mV for 12 ms followed by a hyperpolarizing step to −105 mV for 12 ms to monitor the leak. Cells were then stepped back to −100 mV for 40 ms. Cells were then depolarized to −20 mV for 10 ms and returned to −100 mV for 26 ms.
# (§4) Once the recording was started, the voltage protocol was run at 30 second intervals for 5 minutes to get a stable baseline. This was followed by four 30-second periods of 5 Hz stimulation of the same voltage protocol separated by 1 minute of rest which was then followed by 0.33 Hz stimulation after the last train. Currents were recorded using PatchMaster software with Heka EPC10 (HEKA Electronics, Lambrecht, Germany). Only cells with inward current amplitudes at −20 mV between 400 pA and 4 nA were accepted. In addition, cells having leak currents greater than 10% of their current amplitudes were discarded.
# (§5) The data was plotted using the Patchmaster software (HEKA Electronics, Lambrecht, Germany) and analyzed by plotting the minimum current during the voltage step to −20 mV (peak inward current) as a function of time. […]
# [2] = PAMPA artificial lipid membrane permeability; format: in vitro ADME; conditions: pH 7.4, 4 hours incubation, GIT lipid; for Papp at 4 h, 50 µM: PAMPA
# Protocol: The PAMPA assay (pION, Inc., Woburn Mass.) was used to determine the ability of compounds of the invention to cross an artificial lipid membrane by passive diffusion. Test compounds were dissolved in DMSO (10 mM) and diluted 200-fold in buffer (pION Inc., pH 7.4) to provide 50 uM stock solutions. Buffer (150 μL) was added to a UV blank plate and stock solutions (150 μL) were transferred to a UV reference plate. The blank and reference spectrum were read using a spectrophotometer. Stock solutions (200 μL) were added to the donor plate of the PAMPA sandwich plate and an accept plate painted with GIT lipid (pION Inc, 5 μL) was placed on top. Buffer (200 μL) was added to the acceptor plate and the PAMPA sandwich plate was incubated for 4 hours. Aliquots (150 μL) from the acceptor plate were added to a UV plate and read as acceptor spectrum. Aliquots (150 μL) of the donor solutions were added to a UV analysis plate and read as donor spectrum. The permeability coefficient of test compounds was calculated using PAMPA Explorer™ software (version 3.5.0.4) based on the AUC of the reference plate, the donor plate, and the acceptor plate.
# NaV1.7 [3] = target: T1, NaV1.7; assay: Nav1.7 extracellular inhibition, whole cell patch clamp (external block); format: cell-based; conditions: compound in external solution; for inhibition at 10 µM: read-out: Nav1.7 extracellular inhibition, extracellular inhibition, read-out: Nav1.7 Intracellular Inhibition; for inhibition at 30 µM: test concentration of 30 μM
# Protocol: as §1, §2, §3
# as §4, with “by” for “by four 30-second periods of”, “run until the end” for “separated by 1 minute”, “experiment. […] The test compound” for “rest which”, “added for 5 minutes before washing out with normal Ringer's solution.” for “then followed by 0.33 Hz stimulation after the last train.”
# as §5, with “time. To determine the % block produced by test compounds applied externally the following was done.” for “time.”
# T1 sequence (Q15858 whole entry): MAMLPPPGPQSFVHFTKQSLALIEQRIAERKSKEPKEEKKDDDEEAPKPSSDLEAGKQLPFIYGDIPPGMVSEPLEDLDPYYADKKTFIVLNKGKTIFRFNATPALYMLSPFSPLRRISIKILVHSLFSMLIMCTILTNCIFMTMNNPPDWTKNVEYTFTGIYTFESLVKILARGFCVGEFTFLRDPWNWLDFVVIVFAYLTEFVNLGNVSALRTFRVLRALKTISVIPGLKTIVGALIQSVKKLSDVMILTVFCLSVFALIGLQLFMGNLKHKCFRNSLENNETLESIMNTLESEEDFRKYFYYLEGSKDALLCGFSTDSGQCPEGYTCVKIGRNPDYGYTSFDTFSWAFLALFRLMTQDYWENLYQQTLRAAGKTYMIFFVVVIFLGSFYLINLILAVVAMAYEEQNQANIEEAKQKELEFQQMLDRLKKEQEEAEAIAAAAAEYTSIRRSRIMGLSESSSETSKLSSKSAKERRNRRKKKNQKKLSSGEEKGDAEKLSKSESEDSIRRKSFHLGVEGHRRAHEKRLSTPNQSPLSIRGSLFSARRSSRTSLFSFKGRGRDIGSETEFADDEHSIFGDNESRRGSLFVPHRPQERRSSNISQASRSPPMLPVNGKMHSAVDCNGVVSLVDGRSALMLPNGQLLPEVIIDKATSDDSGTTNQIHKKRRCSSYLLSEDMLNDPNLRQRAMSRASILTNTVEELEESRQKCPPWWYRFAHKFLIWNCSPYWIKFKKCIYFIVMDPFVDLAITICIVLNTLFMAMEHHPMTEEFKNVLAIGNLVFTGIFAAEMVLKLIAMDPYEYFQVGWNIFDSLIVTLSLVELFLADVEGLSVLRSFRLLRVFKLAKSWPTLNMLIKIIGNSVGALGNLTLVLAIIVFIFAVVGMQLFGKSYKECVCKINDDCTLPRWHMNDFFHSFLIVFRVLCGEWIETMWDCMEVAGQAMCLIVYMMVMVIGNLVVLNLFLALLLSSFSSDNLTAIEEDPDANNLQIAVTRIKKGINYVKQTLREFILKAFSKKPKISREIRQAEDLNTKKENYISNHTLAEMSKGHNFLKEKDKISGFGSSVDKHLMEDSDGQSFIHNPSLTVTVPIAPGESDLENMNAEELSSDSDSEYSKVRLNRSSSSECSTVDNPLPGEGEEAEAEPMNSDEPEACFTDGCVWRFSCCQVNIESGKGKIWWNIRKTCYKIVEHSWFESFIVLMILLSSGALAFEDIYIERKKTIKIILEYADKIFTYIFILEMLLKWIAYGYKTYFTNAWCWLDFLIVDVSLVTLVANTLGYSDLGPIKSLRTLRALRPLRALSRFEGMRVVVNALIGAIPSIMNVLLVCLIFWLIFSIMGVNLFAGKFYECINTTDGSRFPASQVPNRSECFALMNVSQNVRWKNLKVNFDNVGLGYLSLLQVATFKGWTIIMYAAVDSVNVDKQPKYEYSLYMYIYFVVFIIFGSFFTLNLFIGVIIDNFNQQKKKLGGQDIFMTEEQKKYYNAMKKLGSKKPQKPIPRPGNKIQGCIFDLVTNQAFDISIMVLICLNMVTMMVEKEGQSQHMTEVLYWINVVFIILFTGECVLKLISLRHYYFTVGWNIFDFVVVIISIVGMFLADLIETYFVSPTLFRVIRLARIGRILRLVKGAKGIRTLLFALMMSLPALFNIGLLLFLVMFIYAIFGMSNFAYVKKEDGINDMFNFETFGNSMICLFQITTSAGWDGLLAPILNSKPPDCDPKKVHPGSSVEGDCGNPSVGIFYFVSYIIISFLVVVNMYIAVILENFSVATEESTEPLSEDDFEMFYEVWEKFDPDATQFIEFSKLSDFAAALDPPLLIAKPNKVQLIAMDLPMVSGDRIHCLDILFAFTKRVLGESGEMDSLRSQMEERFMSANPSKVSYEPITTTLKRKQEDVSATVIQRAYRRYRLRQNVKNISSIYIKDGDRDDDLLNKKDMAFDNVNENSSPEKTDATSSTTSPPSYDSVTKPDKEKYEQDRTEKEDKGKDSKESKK
Structure (SMILES),inhibition at 3 µM (NaV1.7 [1]) [%],inhibition at 10 µM (NaV1.7 [1]) [%],"Papp at 4 h, 50 µM [2] [×10⁻⁶ cm/s]",PAMPA (10^−6cm/s) [2],inhibition at 10 µM (NaV1.7 [3]) [%],inhibition at 30 µM (NaV1.7 [3]) [%]
COC(=O)c1scc(C)c1NC(=O)C[n+]1cccc(-c2ccccc2)c1 [Compound 23],40 to 70,> 70,< 1,+ ((<0.1 10^−6 cm/s)),< 40,< 30
CCCOC(=O)c1scc(C)c1NC(=O)C[n+]1cccn1C1CCCCC1.[Br-] [B],> 90,,,+ ((<0.1 10^−6 cm/s)),< 40,
COC(=O)c1scc(C)c1NC(=O)C[n+]1cccn1C1CCCCC1 [Compound 22],40 to 70,> 70,< 1,+ ((<0.1 10^−6 cm/s)),< 40,< 30
Cc1csc(C(=O)OC(C)(C)C)c1NC(=O)C[n+]1cccc(-c2ccccc2)c1.[Br-] [A],70 to 90,,,+ ((<0.1 10^−6 cm/s)),40 to 70,

# Other lines, results leading:
inhibition at 3 µM (NaV1.7 [1]) [%],inhibition at 10 µM (NaV1.7 [1]) [%],"Papp at 4 h, 50 µM [2] [×10⁻⁶ cm/s]",PAMPA (10^−6cm/s) [2],inhibition at 10 µM (NaV1.7 [3]) [%],inhibition at 30 µM (NaV1.7 [3]) [%],Structure (SMILES)
70 to 90,,,+ ((<0.1 10^−6 cm/s)),< 40,,CCOC(=O)c1scc(C)c1NC(=O)C[n+]1cccn1C1CCCCC1 [C]
70 to 90,,,+ ((<0.1 10^−6 cm/s)),< 40,,Cc1cccc(C(=O)OC(C)(C)C)c1NC(=O)C[n+]1cccn1C1CCCCC1.[Br-] [D]
